For one assay, the target named is T1, PfFT2 (Plasmodium falciparum, UniProt Q8IIK1).
T1 sequence (Q8IIK1 1-455): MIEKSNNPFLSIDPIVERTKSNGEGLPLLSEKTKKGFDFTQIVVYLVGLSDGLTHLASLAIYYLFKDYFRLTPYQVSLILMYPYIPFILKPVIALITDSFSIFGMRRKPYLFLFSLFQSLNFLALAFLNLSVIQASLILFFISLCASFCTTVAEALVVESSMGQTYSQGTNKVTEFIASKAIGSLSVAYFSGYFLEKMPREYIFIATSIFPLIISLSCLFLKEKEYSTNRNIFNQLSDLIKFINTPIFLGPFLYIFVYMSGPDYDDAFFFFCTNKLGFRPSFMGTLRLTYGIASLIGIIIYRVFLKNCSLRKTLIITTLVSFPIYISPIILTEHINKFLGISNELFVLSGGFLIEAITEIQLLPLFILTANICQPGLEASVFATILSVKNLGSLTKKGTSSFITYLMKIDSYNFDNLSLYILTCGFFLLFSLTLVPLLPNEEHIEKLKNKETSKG
The experiment in a line: [3H]folinic acid uptake, Xenopus oocytes. In kind it is cell-based. The conditions noted are these: labelled compound, 40 min, pH 7.4, room temperature.

In another assay the target is T2, PfFT1 (Plasmodium falciparum, UniProt Q8IBB7).
T2 sequence (Q8IBB7 1-505): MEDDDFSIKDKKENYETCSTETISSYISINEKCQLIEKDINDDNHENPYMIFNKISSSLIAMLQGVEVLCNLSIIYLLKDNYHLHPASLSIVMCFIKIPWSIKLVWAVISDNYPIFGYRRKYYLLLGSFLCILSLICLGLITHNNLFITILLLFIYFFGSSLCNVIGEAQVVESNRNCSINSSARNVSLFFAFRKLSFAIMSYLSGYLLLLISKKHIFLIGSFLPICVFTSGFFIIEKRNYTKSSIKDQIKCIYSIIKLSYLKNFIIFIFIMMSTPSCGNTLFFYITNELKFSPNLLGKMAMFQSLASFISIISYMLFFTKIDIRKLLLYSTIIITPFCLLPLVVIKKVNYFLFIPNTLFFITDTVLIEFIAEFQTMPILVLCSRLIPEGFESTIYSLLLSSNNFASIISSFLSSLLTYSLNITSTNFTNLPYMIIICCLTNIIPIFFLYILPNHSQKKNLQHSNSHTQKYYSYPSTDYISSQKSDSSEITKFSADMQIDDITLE
The experiment in a line: [3H]folinic acid uptake, Xenopus oocytes. In kind it is cell-based. The conditions noted are these: labelled compound, 40 min, pH 7.4, room temperature.

As to `Nc1nc(=O)c2c([nH]1)NCC(CNc1ccc(C(=O)N[C@@H](CCC(=O)O)C(=O)O)cc1)N2C=O` (mixture of isomers) [folinic acid], the “[3H]folinic acid uptake, Xenopus oocytes” value is “cRNA from PfFT1 and PfFT2 showed significantly higher uptake of [^3H]folinic acid” at PfFT2; “cRNA from PfFT1 and PfFT2 showed significantly higher uptake of [^3H]folinic acid” at PfFT1.

Source of the values: PMC3247980 (The Journal of Biological Chemistry, 2011).
